Test system: drug resistant clinical M. tuberculosis isolates
Type: cell-based, Mycobacterium tuberculosis
Design: unit not given beside the values
Conditions: 29 clinical isolates, 18 MDR and 5 XDR

SMILES	MIC range
CN[C@@H]1[C@H](O)[C@H](NC)[C@H]2O[C@]3(O)[C@H](O[C@@H]2[C@H]1O)O[C@H](C)C[C@H]3NC(=O)Cc1ccc(O)cn1.Cl.Cl.Cl [Compound 39, 3′-Dihydro-3′-deoxy-3′(R)-(5-hydroxypyridin-2-yl)acetylamino spectinomycin trihydrochloride]	1.56–3.13
Br.Br.Br.CN[C@@H]1[C@H](O)[C@H](NC)[C@H]2O[C@]3(O)[C@H](O[C@@H]2[C@H]1O)O[C@H](C)C[C@H]3NC(=O)Cc1cc(Cl)c(F)cn1 [Compound 49, 3′-Dihydro-3′-deoxy-3′(R)-(4-chloro-5-fluoropyridin-2-yl)acetylamino spectinomycin trihydrobromide]	0.39–1.56

Reference: article PMC5493200 (ACS infectious diseases, 2016)
